Among the data in ChEMBL document CHEMBL1131857, “Quinolizidinyl derivatives of 5,11-dihydro-6H-pyrido[2,3-b][1,4]benzodiazepin-6-one as ligands for muscarinic receptors” (Bioorg Med Chem Lett, 1999) are IC50 values, retold here.

Where only a bound is given, the exact number is not on record here.

Test [1] deals with T1, Muscarinic acetylcholine receptor M1 (Rattus norvegicus, UniProt P08482).
T1 sequence (P08482 whole entry): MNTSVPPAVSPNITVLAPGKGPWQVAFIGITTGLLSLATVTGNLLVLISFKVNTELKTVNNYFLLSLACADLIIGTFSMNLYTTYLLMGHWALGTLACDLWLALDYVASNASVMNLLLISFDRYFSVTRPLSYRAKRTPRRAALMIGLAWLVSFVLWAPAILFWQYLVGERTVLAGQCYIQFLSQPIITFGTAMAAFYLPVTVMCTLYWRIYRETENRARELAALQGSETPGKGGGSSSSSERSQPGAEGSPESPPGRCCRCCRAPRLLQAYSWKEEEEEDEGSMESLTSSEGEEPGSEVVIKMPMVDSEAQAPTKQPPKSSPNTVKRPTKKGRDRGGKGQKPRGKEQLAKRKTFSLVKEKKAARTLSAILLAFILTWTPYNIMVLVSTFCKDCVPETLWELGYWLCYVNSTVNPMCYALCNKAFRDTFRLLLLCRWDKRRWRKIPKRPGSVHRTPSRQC
Put plainly: Displacement of [3H]pirenzepine binding to muscarinic M1 receptor in brain cortex of rat. The format is tissue-based.

The target in test [2] is T2, Muscarinic acetylcholine receptor M2 (Rattus norvegicus, UniProt P10980).
T2 sequence (P10980 whole entry): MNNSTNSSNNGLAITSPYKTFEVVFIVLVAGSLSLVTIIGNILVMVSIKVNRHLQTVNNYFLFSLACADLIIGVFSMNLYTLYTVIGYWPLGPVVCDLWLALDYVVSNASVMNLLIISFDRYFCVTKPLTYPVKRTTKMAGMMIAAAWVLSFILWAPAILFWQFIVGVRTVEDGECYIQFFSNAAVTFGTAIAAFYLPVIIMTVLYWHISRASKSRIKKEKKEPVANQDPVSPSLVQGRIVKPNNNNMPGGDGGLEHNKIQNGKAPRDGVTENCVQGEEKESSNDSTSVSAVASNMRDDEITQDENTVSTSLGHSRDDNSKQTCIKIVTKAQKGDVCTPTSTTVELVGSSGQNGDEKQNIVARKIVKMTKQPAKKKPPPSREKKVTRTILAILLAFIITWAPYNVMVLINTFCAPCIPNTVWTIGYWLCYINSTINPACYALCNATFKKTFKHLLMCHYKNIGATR
Put plainly: Displacement of [3H]methylscopolamine binding to muscarinic M2 receptor in rat heart. Background: Displacement assays read how much labelled ligand stays bound in the presence of the test substance.

The target of test [3] is Muscarinic acetylcholine receptor M3 (Rattus norvegicus, UniProt P08483). Put plainly: Displacement of [3H]methylscopolamine binding to muscarinic M3 receptor in submaxillary salivary glands of rats. The format is tissue-based, Salivary gland.

As usually defined, the IC50 is the midpoint of a concentration-inhibition curve. Low values mean higher potency, high ones lower potency.

Muscarinic acetylcholine receptor M3, sequence (P08483 whole entry): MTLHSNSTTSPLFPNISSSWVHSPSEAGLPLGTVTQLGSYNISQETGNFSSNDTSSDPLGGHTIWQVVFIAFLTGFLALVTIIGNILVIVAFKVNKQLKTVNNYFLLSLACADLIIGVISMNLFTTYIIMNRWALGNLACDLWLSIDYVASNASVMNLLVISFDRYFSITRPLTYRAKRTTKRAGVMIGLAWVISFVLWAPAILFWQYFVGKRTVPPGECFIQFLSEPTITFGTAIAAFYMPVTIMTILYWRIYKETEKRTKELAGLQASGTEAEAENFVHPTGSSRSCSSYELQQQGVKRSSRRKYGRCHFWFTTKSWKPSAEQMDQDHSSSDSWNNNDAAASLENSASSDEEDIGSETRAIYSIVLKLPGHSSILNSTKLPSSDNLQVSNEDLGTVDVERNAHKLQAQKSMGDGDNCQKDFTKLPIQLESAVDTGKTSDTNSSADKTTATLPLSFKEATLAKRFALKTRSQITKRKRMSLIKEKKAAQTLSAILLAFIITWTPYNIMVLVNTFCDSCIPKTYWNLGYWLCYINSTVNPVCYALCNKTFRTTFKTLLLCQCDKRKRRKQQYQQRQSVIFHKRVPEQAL

As to `O=C1Nc2cccnc2N(C(=S)CC2CCCN3CCCC[C@@H]23)c2ccccc21` (some centres undefined), the IC50 is 0.01 µM in test [1], 0.76 µM in test [2] and 0.76 µM in test [3].

`O=C1Nc2ccccc2N(C(=O)CC2CCCN3CCCCC23)c2ncccc21` (centres undefined): the IC50 was 0.65 µM in test [1], 6.8 µM in test [2] and greater than 10 µM in test [3].

For the compound `O=C1Nc2cccnc2N(C(=O)CNCC2CCCN3CCCCC23)c2ccccc21` (centres undefined), the results for the IC50 in test [1], in test [2] and in test [3] were 0.028 µM, 1 µM and 0.8 µM, respectively.

Consider `O=C1Nc2cccnc2N(C(=O)C[C@H]2CCCN3CCCCC23)c2ccccc21` (some centres undefined), for which the results for the IC50 in test [1], in test [2] and in test [3] were 0.04 µM, 1.9 µM and 3.5 µM, respectively.

With `O=C1Nc2cccnc2N(C(=O)C[C@@H]2CCCN3CCCCC23)c2ccccc21` (some centres undefined), the IC50 in test [1] is 0.11 µM; in test [2] it was 6 µM; in test [3], greater than 10 µM.

In the case of `O=C1c2ccccc2-n2c(nc3cccnc32)CN1C[C@@H]1CCCN2CCCC[C@H]12`, the IC50 in test [1] was 1.2 µM; in test [2], 12 µM; in test [3], greater than 10 µM.

Take `O=C1Nc2cccnc2N(C(=O)CSCC2CCCN3CCCCC23)c2ccccc21` (centres undefined): the IC50 in test [1] is 0.01 µM; in test [2] it was 0.76 µM; in test [3] it was 0.76 µM.

Take `Cc1cc(C(=O)c2ccccc2)ccc1NC(=O)CC1CCCN2CCCC[C@H]12` (some centres undefined): the figures for the IC50 in test [1], in test [2] and in test [3] were 0.008 µM, 2.4 µM and 1.3 µM, respectively.
